In assay [1] the test system is methicillin-sensitive Staphylococcus aureus. The assay is described as follows: MIC by broth micro-dilution (CLSI), methicillin-sensitive S. aureus. Type of assay: cell-based. To be noted: MSSA S. aureus ATCC29213. Background: Dilution methods test growth across graded concentrations, often in twofold steps.
Assay [2] deals with carbapenem sensitive Escherichia coli. The assay can be described thus: MIC by broth micro-dilution (CLSI), carbapenem sensitive E. coli. The class given is cell-based.
In assay [3] the test system is carbapenemase producing K. pneumoniae. The assay can be described thus: MIC by broth micro-dilution (CLSI), carbapenemase producing K. pneumoniae. Type of assay: cell-based, Klebsiella pneumoniae.
Assay [4] deals with carbapenem sensitive Pseudomonas aeruginosa. The assay is described as follows: MIC by broth micro-dilution (CLSI), carbapenem sensitive P. aeruginosa. Type of assay: cell-based.
Setting [5] is: Staphylococcus aureus, ATCC 29213 / MSSA, read-out: MIC.
[6] abbreviates: Escherichia coli, ATCC25922, ESBL −ve E. coli ATCC25922, read-out: MIC.
[7] abbreviates: Klebsiella pneumoniae, ATCCBAA1705, KPC-2 K. pneumoniae ATCC BAA-1705, read-out: MIC.
The mark [8] stands for this setting: Pseudomonas aeruginosa, ATCC27853, Meropenem susceptible P. aeruginosa ATCC27853, read-out: MIC.
[9] abbreviates: KPC-2 K. pneumoniae ATCC BAA-1705.
[10] abbreviates: Meropenem susceptible P. aeruginosa ATCC27853.

Broadly, the MIC is the lowest concentration found to suppress growth.

Values after ≈ are worked out from the molar mass of the structure shown. Where two headings read alike, the source gives them in different places.

For the molecule `C[C@@H](NC(=O)[C@@H]1CS(=O)(=O)CN1)[C@H]1C(=O)N2C(C(=O)O)=C(S[C@@H]3CN[C@H](C(=O)N4CC[C@@H](N)C4)C3)[C@H](C)[C@H]12` [Example 280], the MIC turned out to be 64 µg/mL (≈ 112 µM) in assay [1] (setting [5]), 8 µg/mL (≈ 14 µM) in assay [2] (setting [6]), 8 µg/mL (≈ 14 µM) in assay [3] (setting [7]) and 16 µg/mL (≈ 28 µM) in assay [4] (setting [8]).

Turning to `CNCC(=O)N[C@H](C)[C@H]1C(=O)N2C(C(=O)O)=C(S[C@@H]3CN[C@H](C(=O)N4C[C@@H](O)[C@H](NC(=N)N)C4)C3)[C@H](C)[C@H]12` [Example 588, (4R,5S,6R)-3-((3S,5S)-5-((3R,4R)-3-guanidino-4-hydroxypyrrolidine-1-carbonyl)pyrrolidin-3-ylthio)-4-methyl-6-((R)-1-(2-(methylamino)acetamido)ethyl)-7-oxo-1-azabicyclo[3.2.0]hept-2-ene-2-carboxylic acid], the minimum inhibitory concentration (MIC) came to 32 µg/mL (≈ 57.9 µM) in assay [1] (setting [5]), 4 µg/mL (≈ 7.24 µM) in assay [2] (setting [6]), 4 µg/mL (≈ 7.24 µM) in assay [3] (setting [7]) and 4 µg/mL (≈ 7.24 µM) in assay [4] (setting [8]).

Consider `CNCC(=O)N[C@H](C)[C@H]1C(=O)N2C(C(=O)O)=C(S[C@@H]3CN[C@H](C(=O)N4CC5CC4CN5)C3)[C@H](C)[C@H]12` (stereo partly shown) [Example 290], for which the MIC in assay [1] (setting [5]) stood at 32 µg/mL (≈ 63.2 µM); in assay [2] (setting [6]), 2 µg/mL (≈ 3.95 µM); in assay [3] (setting [7]), 4 µg/mL (≈ 7.9 µM); in assay [4] (setting [8]) it was 8 µg/mL (≈ 15.8 µM).

For `C[C@@H](NC(=O)Cn1cnnn1)[C@H]1C(=O)N2C(C(=O)O)=C(S[C@@H]3CN[C@H](C(=O)N4CCC5(CCNC5)CC4)C3)[C@H](C)[C@H]12` [Example 435, (4R,5S,6R)-6-((R)-1-(2-(1H-tetrazol-1-yl)acetamido)ethyl)-3-((3S,5S)-5-(2,8-diazaspiro[4.5]decane-8-carbonyl)pyrrolidin-3-ylthio)-4-methyl-7-oxo-1-azabicyclo[3.2.0]hept-2-ene-2-carboxylic acid], the MIC is 2 µg/mL (≈ 3.4 µM) in assay [1] (setting [5]), 0.25 µg/mL (≈ 0.425 µM) in assay [2] (setting [6]), 1 µg/mL (≈ 1.7 µM) in assay [3] (setting [7]) and 1 µg/mL (≈ 1.7 µM) in assay [4] (setting [8]).

Take `C[C@@H](NC(=O)Cn1nnnc1C(F)(F)F)[C@H]1C(=O)N2C(C(=O)O)=C(S[C@@H]3CN[C@H](C(=O)N4CC[C@@H](N)C4)C3)[C@H](C)[C@H]12` [Example 347, (4R,5S,6R)-3-((3S,5S)-5-((R)-3-aminopyrrolidine-1-carbonyl)pyrrolidin-3-ylthio)-4-methyl-7-oxo-6-((R)-1-(2-(5-(trifluoromethyl)-1H-tetrazol-1-yl)acetamido)ethyl)-1-azabicyclo[3.2.0]hept-2-ene-2-carboxylic acid]: the MIC in assay [1] (setting [5]) was 4 µg/mL (≈ 6.65 µM); in assay [2] (setting [6]), 0.5 µg/mL (≈ 0.831 µM); in assay [3] (setting [7]) it was 16 µg/mL (≈ 26.6 µM); in assay [4] (setting [8]) it was more than 128 µg/mL.

Regarding `C[C@@H](NC(=O)C(F)F)[C@H]1C(=O)N2C(C(=O)O)=C(S[C@@H]3CN[C@H](C(=O)N4CCc5nc(N)sc5C4)C3)[C@H](C)[C@H]12` [Example 235], the MIC in assay [1] (setting [5]) was 2 µg/mL (≈ 3.5 µM); in assay [2] (setting [6]), 2 µg/mL (≈ 3.5 µM); in assay [3] (setting [7]), 16 µg/mL (≈ 28 µM); in assay [4] (setting [8]), more than 128 µg/mL.

As to `C[C@@H](NC(=O)Cn1cnnn1)[C@H]1C(=O)N2C(C(=O)O)=C(S[C@@H]3CN[C@H](C(=O)N4CC(N)C(CO)C4)C3)[C@H](C)[C@H]12` (single isomer, unassigned) [Example 587], the MIC was 4 µg/mL (≈ 7.1 µM) in assay [1], 0.25 µg/mL (≈ 0.444 µM) in assay [2] (ESBL −ve E. coli ATCC25922), 2 µg/mL (≈ 3.55 µM) in assay [3] (setting [9]) and 2 µg/mL (≈ 3.55 µM) in assay [4] (setting [10]).

With `C[C@@H](NC(=O)Cn1cnnn1)[C@H]1C(=O)N2C(C(=O)O)=C(SC3CN(C(=O)[C@@H]4C[C@H](N)CN4)C3)[C@H](C)[C@H]12` [Example 387], the MIC in assay [1] (setting [5]) is 8 µg/mL (≈ 15.4 µM); in assay [2] (setting [6]), 0.25 µg/mL (≈ 0.481 µM); in assay [3] (setting [7]), 8 µg/mL (≈ 15.4 µM); in assay [4] (setting [8]), 32 µg/mL (≈ 61.6 µM).

As for `C[C@@H](NC(=O)Cn1cnnn1)[C@H]1C(=O)N2C(C(=O)O)=C(S[C@@H]3CN[C@H](C(=O)N4CCN[C@@H](CN)C4)C3)[C@H](C)[C@H]12` [Example 485, (4R,5S,6R)-6-((R)-1-(2-(1H-tetrazol-1-yl)acetamido)ethyl)-3-((3S,5S)-5-((S)-3-(aminomethyl)piperazine-1-carbonyl)pyrrolidin-3-ylthio)-4-methyl-7-oxo-1-azabicyclo[3.2.0]hept-2-ene-2-carboxylic acid], the MIC in assay [1] (setting [5]) worked out at 8 µg/mL (≈ 14.2 µM); in assay [2] (setting [6]), 0.5 µg/mL (≈ 0.889 µM); in assay [3] (setting [7]), 4 µg/mL (≈ 7.11 µM); in assay [4] (setting [8]), 4 µg/mL (≈ 7.11 µM).

On to `C[C@@H](NC(=O)Cn1cnnn1)[C@H]1C(=O)N2C(C(=O)O)=C(S[C@@H]3CN[C@H](C(=O)N4C[C@@H](CO)[C@H](NC(=N)N)C4)C3)[C@H](C)[C@H]12` [Example 583, (4R,5S,6R)-6-((R)-1-(2-(1H-tetrazol-1-yl)acetamido)ethyl)-3-((3S,5S)-5-((3S,4R)-3-guanidino-4-(hydroxymethyl)pyrrolidine-1-carbonyl)pyrrolidin-3-ylthio)-4-methyl-7-oxo-1-azabicyclo[3.2.0]hept-2-ene-2-carboxylic acid], for which the MIC in assay [1] (setting [5]) stood at 1 µg/mL (≈ 1.65 µM); in assay [2] (setting [6]), 0.03 µg/mL (≈ 0.0495 µM); in assay [3] (setting [7]), 1 µg/mL (≈ 1.65 µM); in assay [4] (setting [8]), 0.5 µg/mL (≈ 0.826 µM).

As to `C[C@@H](NC(=O)Cn1cnnn1)[C@H]1C(=O)N2C(C(=O)O)=C(S[C@@H]3CN[C@H](C(=O)N4C[C@H]5CC[C@@H](C4)[C@H]5N)C3)[C@H](C)[C@H]12` [Example 345, (4R,5S,6R)-6-((R) - 1-(2-(1H-tetrazol-1-yl)acetamido)ethyl)-3-((3S,5S)-5-((1R,5S,8S)-8-amino-3-azabicyclo[3.2.0]octane-3-carbonyl)pyrrolidin-3-ylthio)-4-methyl-7-oxo-1-azabicyclo[3.2.0]hept-2-ene-2-carboxylic acid], the MIC in assay [1] (setting [5]) was determined as 64 µg/mL (≈ 112 µM); in assay [2] (setting [6]), 8 µg/mL (≈ 13.9 µM); in assay [3] (setting [7]) it was 32 µg/mL (≈ 55.8 µM); in assay [4] (setting [8]) it was 128 µg/mL (≈ 223 µM).

For `C[C@@H](NC(=O)Cn1cnnn1)[C@H]1C(=O)N2C(C(=O)O)=C(S[C@@H]3CN[C@H](C(=O)N4CCC[C@H](N)C4)C3)[C@H](C)[C@H]12` [Example 341, (4R,5S,6R)-6-((R) - 1-(2-(1H-tetrazol-1-yl)acetamido)ethyl)-3-((3S,5S)-5-((S)-3-aminopiperidin-1-carbonyl)pyrrolidin-3-ylthio)-4-methyl-7-oxo-1-azabicycio[3.2.0]hept-2-ene-2-carboxylic acid], the MIC is 4 µg/mL (≈ 7.3 µM) in assay [1] (setting [5]), 1 µg/mL (≈ 1.83 µM) in assay [2] (setting [6]), 4 µg/mL (≈ 7.3 µM) in assay [3] (setting [7]) and 8 µg/mL (≈ 14.6 µM) in assay [4] (setting [8]).

For the molecule `C[C@@H](NC(=O)Cn1cnnn1)[C@H]1C(=O)N2C(C(=O)O)=C(S[C@@H]3CN[C@H](C(=O)N4CCC5CN(C[C@@H](O)CN)CCC54)C3)[C@H](C)[C@H]12` (single isomer, unassigned) [Example 532], the MIC was found to be 4 µg/mL (≈ 6.18 µM) in assay [1], 0.25 µg/mL (≈ 0.387 µM) in assay [2] (ESBL −ve E. coli ATCC25922), 2 µg/mL (≈ 3.09 µM) in assay [3] (setting [9]) and 2 µg/mL (≈ 3.09 µM) in assay [4] (setting [10]).

For the molecule `C[C@@H](NC(=O)Cn1cnnn1)[C@H]1C(=O)N2C(C(=O)O)=C(S[C@@H]3CN[C@H](C(=O)N4CCC5NCCCC5C4)C3)[C@H](C)[C@H]12` (stereo partly drawn) [Example 487, (4R,5S,6R)-6-((R)-1-(2-(1H-tetrazol-1-yl)acetamidin)ethyl)-3-((3S,5S)-5-(decahydro-1,6-naphthyridine-6-carbonyl)pyrrolidin-3-ylthio)-4-methyl-7-oxo-1-azabicyclo[3.2.0]hept-2-ene-2-carboxylic acid], the MIC stood at 2 µg/mL (≈ 3.4 µM) in assay [1], 0.25 µg/mL (≈ 0.425 µM) in assay [2] (ESBL −ve E. coli ATCC25922), 1 µg/mL (≈ 1.7 µM) in assay [3] (setting [9]) and 8 µg/mL (≈ 13.6 µM) in assay [4] (setting [10]).

Turning to `C[C@@H](NC(=O)Cn1ccnn1)[C@H]1C(=O)N2C(C(=O)O)=C(S[C@@H]3CN[C@H](C(=O)N(C)C)C3)[C@H](C)[C@H]12` [Example 296], the MIC in assay [1] (setting [5]) was determined as 4 µg/mL (≈ 8.14 µM); in assay [2] (setting [6]) it was 0.5 µg/mL (≈ 1.02 µM); in assay [3] (setting [7]), 2 µg/mL (≈ 4.07 µM); in assay [4] (setting [8]) it was 64 µg/mL (≈ 130 µM).

As to `C[C@@H](NC(=O)Cn1cnnn1)[C@H]1C(=O)N2C(C(=O)O)=C(S[C@@H]3CN[C@H](C(=O)N4CCC5CN(C[C@@H](O)CN)CCC54)C3)[C@H](C)[C@H]12` (single isomer, unassigned) [Example 521], the MIC is 2 µg/mL (≈ 3.09 µM) in assay [1] (setting [5]), 0.5 µg/mL (≈ 0.773 µM) in assay [2] (setting [6]), 0.5 µg/mL (≈ 0.773 µM) in assay [3] (setting [9]) and 2 µg/mL (≈ 3.09 µM) in assay [4] (setting [8]).

Turning to `C[C@@H](NC(=O)Cn1cnnn1)[C@H]1C(=O)N2C(C(=O)O)=C(CN3C[C@H](NC(=N)N)[C@@H](O)C3)[C@H](C)[C@H]12` [Example 600, (4S,5R,6R)-6-((R)-1-(2-(1H-tetrazol-1-yl)acetamido)ethyl)-3-(((3S,4S)-3-guanidino-4-hydroxypyrrolidin-1-yl)methyl)-4-methyl-7-oxo-1-azabicyclo[3.2.0]hept-2-ene-2-carboxylic acid], the MIC in assay [1] (setting [5]) was 0.5 µg/mL (≈ 1.05 µM); in assay [2] (setting [6]), 0.5 µg/mL (≈ 1.05 µM); in assay [3] (setting [7]) it was 4 µg/mL (≈ 8.39 µM); in assay [4] (setting [8]) it was 16 µg/mL (≈ 33.6 µM).

For `C[C@@H](NC(=O)C(F)F)[C@H]1C(=O)N2C(C(=O)O)=C(S[C@@H]3CN[C@@H](C(=O)N(C)C)C3)[C@H](C)[C@H]12` [Example 248], the MIC in assay [1] (setting [5]) is 1 µg/mL (≈ 2.17 µM); in assay [2] (setting [6]), 1 µg/mL (≈ 2.17 µM); in assay [3] (setting [7]), 4 µg/mL (≈ 8.69 µM); in assay [4] (setting [8]), more than 128 µg/mL.

Regarding `C[C@@H](NC(=O)Cn1cnnn1)[C@H]1C(=O)N2C(C(=O)O)=C(S[C@@H]3CN[C@H](C(=O)N4CCC(N5CC(O)C5)CC4)C3)[C@H](C)[C@H]12` [Example 426, (4R,5S,6R)-6-((R)-1-(2-(1H-tetrazol-1-yl)acetamido)ethyl)-3-((3S,5S)-5-(4-(3-hydroxyazetidin-1-yl]piperidine-1-carbonyl)pyrrolidin-3-ylthio)-4-methyl-7-oxo-1-azabicyclo[3.2.0]hept-2-ene-2-carboxylic acid], the minimum inhibitory concentration (MIC) in assay [1] (setting [5]) amounted to 4 µg/mL (≈ 6.63 µM); in assay [2] (setting [6]) it was 0.25 µg/mL (≈ 0.414 µM); in assay [3] (setting [7]), 1 µg/mL (≈ 1.66 µM); in assay [4] (setting [8]) it was 2 µg/mL (≈ 3.31 µM).

Source of the values: patent publication US11180504B2 (ORCHID PHARMA LTD., priority 2016, dated 2021).
